Test results taken from patent US7871998B2, “Diphenylazetidinone derivatives possessing cholesterol absorption inhibitory activity” (AstraZeneca AB, priority 2003, dated 2011).
One block for each molecule: values may come before it.

How the values were obtained:
[1] = test system: Caco-2 cells; assay: Absorption in a Caco-2 cells model; format: in vitro ADME
Experimental: (§1) Absorption of the compounds of formula (I) was tested in a Caco-2 cells model (Gastroenterology 1989, 96, 736): […]

[2] = test system: ^14C-cholesterol absorption; assay: In vivo testing of cholesterol absorption inhibitors (A); design: species or system C57BL/6 female mice; details: procedure A, gavage, mice
Experimental: In vivo Testing of Cholesterol Absorption Inhibitors (A)
C57BL/6 female mice were maintained on regular chow diet and housed in individual cages to collect faeces. Mice were fasted for 3 hours and then gavaged with vehicle or compound. Half an hour later the mice were gavaged with radiolabelled cholesterol. Six hours after the ^14C-cholesterol gavage blood samples were taken via the tail and plasma prepared to determine how much cholesterol were absorbed. 24 hours after the gavage of ^14C-cholesterol the mice were bled and plasma were prepared for analysis. Faeces were collected for 24 hours to assess absorption efficiency.

[3] = Absorption in a Caco-2 cells model; format: in vitro ADME; details: human
Experimental: as §1

- Caco value [1]: 0.2 ×10⁻⁶ cm/s
Structure (SMILES): NCCCC[C@@H](NC(=O)CNC(=O)COc1ccc([C@@H]2[C@@H](SCC(O)c3ccc(F)cc3)C(=O)N2c2ccc(F)cc2)cc1)C(=O)O (some centres unmarked) [Example 29]

Structure (SMILES): O=C(COc1ccc([C@@H]2[C@@H](SCC(O)c3ccc(F)cc3)C(=O)N2c2ccc(F)cc2)cc1)NCC(=O)N[C@H](CO)C(=O)O (stereo partly drawn) [Example 96, 1-(4-Fluorophenyl)-3-(R)-[2-(4-fluorophenyl)-2-hydroxyethylthio]-4-(R)-{4-[N-{N-[2-(hydroxy)-1-(R)-(carboxy)ethyl]carbamoylmethyl}carbamoylmethoxy]phenyl}azetidin-2-one]
- inhibition of ^14C-cholesterol absorption ([2]; 5 μmol/kg): 87%

- Caco value [1]: 0.09 ×10⁻⁶ cm/s
Structure (SMILES): O=C(COc1ccc([C@@H]2[C@@H](SCC(O)c3ccc(F)cc3)C(=O)N2c2ccc(F)cc2)cc1)NCC(=O)N[C@H](Cc1ccccc1)C(=O)O (stereo partly drawn) [Example 97, 1-(4-Fluorophenyl)-3-(R)-[2-(4-fluorophenyl)-2-hydroxyethylthio]-4-(R)-{4-[N-{N-[2-(phenyl)-1-(R)-(carboxy)ethyl]carbamoylmethyl}carbamoylmethoxy]phenyl}azetidin-2-one]

Structure (SMILES): NCCC[C@@H](NC(=O)CNC(=O)COc1ccc([C@@H]2[C@@H](SCC(O)c3ccc(F)cc3)C(=O)N2c2ccc(F)cc2)cc1)C(=O)O (stereo partly drawn) [Example 91, N-{[4-((2R,3R)-1-(4-fluorophenyl)-3-{[2-(4-fluorophenyl)-2-hydroxyethyl]thio}-4-oxoazetidin-2-yl)phenoxy]acetyl}glycyl-D-ornithine]
- inhibition of ^14C-cholesterol absorption ([2]; 0.2 μmol/kg): 58%

Structure (SMILES): O=C(COc1ccc([C@@H]2[C@@H](SCC(O)c3ccc(F)cc3)C(=O)N2c2ccc(F)cc2)cc1)NCC(=O)N[C@H](CC1CCCC1)C(=O)O (stereo partly drawn) [Example 85, N-{[4-((2R,3R)-1-(4-fluorophenyl)-3-{[2-(4-fluorophenyl)-2-hydroxyethyl]thio}-4-oxoazetidin-2-yl)phenoxy]acetyl}glycyl-3-cyclopentyl-D-alanine]
- inhibition of ^14C-cholesterol absorption ([2]; 0.2 μmol/kg): 47%

- Papp [3]: 0.06 ×10⁻⁶ cm/s
Structure (SMILES): CC(C)[C@@H](NC(=O)CNC(=O)COc1ccc([C@@H]2[C@@H](SCC(O)c3ccc(F)cc3)C(=O)N2c2ccc(F)cc2)cc1)C(=O)O (stereo partly drawn) [Example 23, N-{[4-((2R,3R)-1-(4-fluorophenyl)-3-{[2-(4-fluorophenyl)-2-hydroxyethyl]thio}-4-oxoazetidin-2-yl)phenoxy]acetyl}glycyl-D-valine]

Structure (SMILES): O=C(COc1ccc([C@@H]2[C@@H](SCC(O)c3ccc(F)cc3)C(=O)N2c2ccc(F)cc2)cc1)N[C@@H](C(=O)N[C@@H](CO)C(=O)O)c1ccccc1 (stereo partly drawn) [Example 94, 1-(4-Fluorophenyl)-3-(R)-[2-(4-fluorophenyl)-2-hydroxyethylthio]-4-(R)-{4-[N-(α-(R)-{N-[2-(hydroxy)-1-(S)-(carboxy)ethyl]carbamoyl}benzyl)carbamoylmethoxy]phenyl}azetidin-2-one]
- inhibition of ^14C-cholesterol absorption ([2]; 5 μmol/kg): 89%

- Papp [3]: 0.07 ×10⁻⁶ cm/s
Structure (SMILES): O=C(COc1ccc([C@@H]2[C@@H](SCC(O)c3ccc(F)cc3)C(=O)N2c2ccc(F)cc2)cc1)NCC(=O)N[C@H](Cc1ccc(O)cc1)C(=O)O (stereo partly drawn) [Example 26, N-{[4-((2R,3R)-1-(4-fluorophenyl)-3-{[2-(4-fluorophenyl)-2-hydroxyethyl]thio}-4-oxoazetidin-2-yl)phenoxy]acetyl}glycyl-D-tyrosine]
